Where two headings read alike, the source gives them in different places.
Columns and labels:
[1] = system: T. cruzi (Sylvio X10/7A1 strain) intracellular amastigote (in Vero cells); assay: microbe, parasite or virus in culture; format: cell-based; conditions: for EC50: Trypanosoma cruzi, Vero; for Fold-shift (relative to WT): intracellular amastigote in Vero cells
[2] = system: L. donovani (MHOM-ET-67/L82) axenic amastigote; assay: Drug sensitivity assay, L. donovani axenic amastigotes; format: cell-based; conditions: Leishmania donovani, WT
[3] = target: CYP2C9 (Homo sapiens, UniProt P11712); assay: In vitro CYP inhibition, 2C9; format: in vitro ADME
CYP2C9, sequence (P11712 whole entry, canonical isoform): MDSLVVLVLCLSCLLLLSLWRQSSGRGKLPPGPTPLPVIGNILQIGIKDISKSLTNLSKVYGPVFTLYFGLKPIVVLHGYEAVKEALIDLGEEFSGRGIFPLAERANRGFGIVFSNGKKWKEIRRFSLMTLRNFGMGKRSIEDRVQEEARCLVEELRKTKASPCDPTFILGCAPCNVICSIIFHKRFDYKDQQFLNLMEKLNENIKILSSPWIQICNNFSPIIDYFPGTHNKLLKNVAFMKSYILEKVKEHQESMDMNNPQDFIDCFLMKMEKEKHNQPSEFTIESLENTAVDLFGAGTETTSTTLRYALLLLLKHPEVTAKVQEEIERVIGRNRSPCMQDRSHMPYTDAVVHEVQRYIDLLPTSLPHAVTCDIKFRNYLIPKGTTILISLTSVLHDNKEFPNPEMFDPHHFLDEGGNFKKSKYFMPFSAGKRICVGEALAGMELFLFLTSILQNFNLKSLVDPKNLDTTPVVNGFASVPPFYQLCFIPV
Protocol: (§1) Compounds were screened for CYP inhibition activity using the protocol established by TCG Lifesciences (India). The activity of five CYP450 isoforms: 1A2; 2C9; 2D6, 3A4; and 2C19 was monitored in the presence of test or control (miconazole) compounds at 10 µM. Reactions were terminated after 10 min (30 min for CYP2C19) by the addition of acetonitrile, centrifuged and analysed via LC-MS/MS. […]

[4] = target: T1, hERG channel (Homo sapiens, UniProt Q12809); assay: In vitro hERG fluorescence polarization assay; format: binding; conditions: read-out: hERG inhibition (IC50 value)
T1 construct: purchased Invitrogen
T1 sequence (Q12809 whole entry): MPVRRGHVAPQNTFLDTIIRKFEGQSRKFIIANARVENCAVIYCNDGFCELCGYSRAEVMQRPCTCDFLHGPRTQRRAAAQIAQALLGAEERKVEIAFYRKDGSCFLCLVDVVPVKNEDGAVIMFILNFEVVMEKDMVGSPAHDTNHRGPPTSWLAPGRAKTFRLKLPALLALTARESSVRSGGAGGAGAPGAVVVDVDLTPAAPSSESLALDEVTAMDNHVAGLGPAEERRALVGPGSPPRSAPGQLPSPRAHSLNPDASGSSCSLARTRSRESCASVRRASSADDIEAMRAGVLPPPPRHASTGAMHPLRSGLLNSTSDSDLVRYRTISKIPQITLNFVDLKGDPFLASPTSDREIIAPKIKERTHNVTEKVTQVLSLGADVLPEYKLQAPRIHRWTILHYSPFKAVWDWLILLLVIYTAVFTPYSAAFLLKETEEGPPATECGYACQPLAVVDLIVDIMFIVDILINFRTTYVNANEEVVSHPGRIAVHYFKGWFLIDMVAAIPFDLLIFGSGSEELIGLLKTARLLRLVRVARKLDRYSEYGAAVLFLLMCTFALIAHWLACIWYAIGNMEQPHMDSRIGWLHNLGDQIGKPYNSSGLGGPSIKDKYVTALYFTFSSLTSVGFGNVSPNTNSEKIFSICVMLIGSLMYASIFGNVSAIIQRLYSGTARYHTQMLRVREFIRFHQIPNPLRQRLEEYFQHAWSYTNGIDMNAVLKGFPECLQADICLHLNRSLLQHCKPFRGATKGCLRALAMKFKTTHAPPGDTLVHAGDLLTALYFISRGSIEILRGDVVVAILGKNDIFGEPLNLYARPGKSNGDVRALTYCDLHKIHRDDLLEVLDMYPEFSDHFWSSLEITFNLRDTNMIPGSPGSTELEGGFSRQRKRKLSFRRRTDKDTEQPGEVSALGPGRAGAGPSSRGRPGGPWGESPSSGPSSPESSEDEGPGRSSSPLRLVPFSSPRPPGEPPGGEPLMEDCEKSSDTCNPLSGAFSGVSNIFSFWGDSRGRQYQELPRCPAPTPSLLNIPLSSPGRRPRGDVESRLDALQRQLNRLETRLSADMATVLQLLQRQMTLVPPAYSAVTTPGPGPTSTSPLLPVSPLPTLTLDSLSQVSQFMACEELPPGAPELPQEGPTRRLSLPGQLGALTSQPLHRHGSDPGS
Protocol: In vitro hERG fluorescence polarization assay
Compounds were assessed for potential hERG channel inhibition using the Predictor® hERG Fluorescence Polarization Assay Kit (Invitrogen), as per manufacturer’s instructions.
Compounds were screened with test compounds at concentrations ranging from 0.0003 – 30
µM. Fluorescence polarization was measured using EnVision plate reader fitted with polarized filters (excitation: 531 nm; emission: 595 nm). IC50 values were determined using GraphPad

[5] = system: T. b. brucei BSF; assay: Drug sensitivity assay, T. b. brucei bloodstream forms; format: cell-based; conditions: for EC50: Trypanosoma brucei
[6] = system: T. cruzi (Sylvio X10/7A1 strain) epimastigote; assay: microbe, parasite or virus in culture; format: cell-based; conditions: for EC50: Trypanosoma cruzi; for Fold-shift (relative to WT): epimastigote
[7] = target: CYP1A2 (Homo sapiens, UniProt P05177); assay: In vitro CYP inhibition, 1A2; format: in vitro ADME
CYP1A2, sequence (P05177 whole entry): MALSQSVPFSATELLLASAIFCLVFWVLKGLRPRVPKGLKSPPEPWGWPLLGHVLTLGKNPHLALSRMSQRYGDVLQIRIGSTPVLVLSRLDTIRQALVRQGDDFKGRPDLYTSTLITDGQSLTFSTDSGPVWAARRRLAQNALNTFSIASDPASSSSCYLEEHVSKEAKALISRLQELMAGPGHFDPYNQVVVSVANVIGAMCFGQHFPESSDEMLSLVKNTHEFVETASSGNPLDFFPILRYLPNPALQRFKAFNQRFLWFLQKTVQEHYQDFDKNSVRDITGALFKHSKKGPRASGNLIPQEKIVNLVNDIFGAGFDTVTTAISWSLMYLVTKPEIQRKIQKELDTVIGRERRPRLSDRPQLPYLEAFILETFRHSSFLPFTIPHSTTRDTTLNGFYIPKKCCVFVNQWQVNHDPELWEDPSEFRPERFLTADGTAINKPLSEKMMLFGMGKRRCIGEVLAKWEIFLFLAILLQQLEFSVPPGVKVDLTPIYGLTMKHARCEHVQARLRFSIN
Protocol: as §1

[8] = system: L. donovani (LdBOB) promastigote; assay: Drug sensitivity assay, L. donovani promastigotes; format: cell-based; conditions: for EC50: Leishmania donovani
[9] = system: T. cruzi (Tulahuen strain) intracellular amastigote (in L6 cells); assay: Drug sensitivity assay, T. cruzi (Tulahuen)-infected L6 rat skeletal myoblasts; format: cell-based; conditions: Trypanosoma cruzi
Protocol: T. cruzi epimastigotes of the Silvio strain (MHOM/BR/78/Silvio; clone X10/7A) were maintained at 28°C in RPMI 1640 medium (Merck) supplemented with trypticase peptone (4.9 mg/ml), HEPES (20 mM), haemin (20 μg/ml), and foetal bovine serum (FBS, 10%), as previously described ([29]). T. cruzi metacyclic trypomastigotes were obtained and maintained, as previously described ([29]). Briefly, late-log epimastigotes were seeded at 10^6 cells/ml in RTH/FBS and differentiated into trypomastigotes after 7 days at 28°C. Vero cells were infected with trypomastigotes for 12 hours in Dulbecco modified Eagle medium (DMEM) supplemented with 5% FBS, at 37°C in the presence of 5% CO2. Infected Vero cells were washed 3× with DMEM/FBS to remove extracellular parasites, and medium was replaced every two days until trypomastigotes re-emerged. Three rounds of infection were performed before trypomastigotes were harvested for drug sensitivity assays. For drug sensitivity assays carried out at the Swiss Tropical Institute, a T. cruzi cell line (Tulahuen C2C4) expressing the β-galactosidase gene LacZ was propagated in L6 rat skeletal myoblasts (ATCC CRL-1458) as previously described ([37]).
Drug sensitivity assays with T. cruzi (Tulahuen)-infected L6 rat skeletal myoblasts were carried out as previously described ([37]).

[10] = target: T2, human KRS (Homo sapiens, UniProt Q15046); assay: Human KRS inhibition assay using BIOMOL Green; format: biochemical; conditions: for IC50: recombinant HsKRS, 3.5 μM ATP, 6 μM L-lysine, read-out: IC50 values (95% CI)
T2 construct: made in house
T2 sequence (Q15046 whole entry): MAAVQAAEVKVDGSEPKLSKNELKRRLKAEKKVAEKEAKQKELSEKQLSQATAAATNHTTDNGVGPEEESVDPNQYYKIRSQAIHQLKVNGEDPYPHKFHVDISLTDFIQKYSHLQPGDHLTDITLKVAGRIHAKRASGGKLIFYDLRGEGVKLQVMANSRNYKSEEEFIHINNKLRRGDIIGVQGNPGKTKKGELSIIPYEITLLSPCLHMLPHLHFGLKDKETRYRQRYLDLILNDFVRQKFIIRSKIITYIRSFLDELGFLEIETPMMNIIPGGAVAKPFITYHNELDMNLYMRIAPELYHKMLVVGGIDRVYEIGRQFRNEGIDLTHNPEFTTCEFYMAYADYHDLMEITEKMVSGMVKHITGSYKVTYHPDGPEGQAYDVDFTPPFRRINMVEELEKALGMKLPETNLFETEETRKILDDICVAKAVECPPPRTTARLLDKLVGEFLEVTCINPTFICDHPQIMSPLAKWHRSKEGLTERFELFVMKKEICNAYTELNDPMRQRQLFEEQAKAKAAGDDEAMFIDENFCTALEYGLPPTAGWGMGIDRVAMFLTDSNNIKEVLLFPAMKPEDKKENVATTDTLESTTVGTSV
Protocol: Cloning, expression and purification of recombinant HsKRS has been described previously ([21]).
The enzymatic activity of recombinant KRS was determined by monitoring the concentration of pyrophosphate released during the first step of the reaction catalyzed by recombinant TcKRS1. The pyrophosphate formed was converted to two inorganic phosphate molecules using a pyrophosphatase enzyme and concentrations of the resulting phosphate were measured using the BIOMOL Green reagent (Enzo Life Sciences). All screening assays were performed in 384-well, clear, flat-bottom plates (Greiner) at room temperature (~23°C) in 50 μl reaction volumes.
To generate IC50 data for test compounds, 10-point inhibitor dose-response curves were prepared in 384-well assay plates using an ECHO 550 acoustic dispenser (Labcyte).
All assays were performed by adding 25 μl of assay buffer with enzyme to compound-containing assay wells before the reaction was initiated with the addition of a 25 μl substrate mixture containing L-lysine, ATP and pyrophosphatase. […] Following a 6–h reaction at room temperature, the assays were stopped by the addition of 50 μl BIOMOL Green. The BIOMOL Green signal was allowed to develop for 30 min before the absorbance of each well was read at 650 nm using a PheraStar plate reader (BMG). All liquid-dispensing steps were carried out using a Thermo Scientific WellMate dispenser (Matrix).
All IC50 curve fitting was undertaken using ActivityBase XE (version 7.7.1) from IDBS. Percentage inhibition curves for TcKRS1 and human KRS, were fitted to a four-parameter logistic dose-response equation (XLfit model 203), with pre-fitting for all four parameters, using the equation below, where A is no inhibition, B is maximum inhibition, C is the Log10 (IC50), D is the Hill slope and x is the inhibitor concentration. […]

[11] = system: T. b. rhodesiense; assay: Drug sensitivity assay, T. b. rhodesiense bloodstream forms; format: cell-based; conditions: Trypanosoma brucei, read-out: EC50 value
[12] = target: CYP2C19 (Homo sapiens, UniProt P33261); assay: In vitro CYP inhibition, 2C19; format: in vitro ADME
CYP2C19, sequence (P33261 whole entry, species assumed): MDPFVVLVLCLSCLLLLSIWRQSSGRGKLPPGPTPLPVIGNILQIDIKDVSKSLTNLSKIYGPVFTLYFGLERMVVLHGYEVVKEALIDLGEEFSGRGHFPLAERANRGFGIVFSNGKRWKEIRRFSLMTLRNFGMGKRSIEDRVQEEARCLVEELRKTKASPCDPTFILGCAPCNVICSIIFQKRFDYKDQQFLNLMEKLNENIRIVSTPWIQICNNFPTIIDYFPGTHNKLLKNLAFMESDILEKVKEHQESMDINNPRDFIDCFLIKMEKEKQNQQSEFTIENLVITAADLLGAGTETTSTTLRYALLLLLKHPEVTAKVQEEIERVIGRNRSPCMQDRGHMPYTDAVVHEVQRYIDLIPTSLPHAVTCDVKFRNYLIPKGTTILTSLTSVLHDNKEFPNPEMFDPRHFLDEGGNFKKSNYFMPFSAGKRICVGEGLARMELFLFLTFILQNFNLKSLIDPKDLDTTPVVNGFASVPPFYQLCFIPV
Protocol: as §1

[13] = read-out: EC50 value, KRS1 OE, intracellular amastigote in Vero cells
[14] = read-out: EC50 value, KRS1 S319L, intracellular amastigote in Vero cells
[15] = read-out: EC50 value, WT, intracellular amastigote in Vero cells
[16] = KRS1 OE, BSF, read-out: EC50 value
[17] = read-out: EC50 value, KRS1 S319L (as printed in Table S1), BSF
[18] = read-out: EC50 value, KRS1 OE (overexpressing), epimastigote
[19] = read-out: EC50 value, KRS1 S319L, epimastigote
[20] = read-out: EC50 value, WT, epimastigote
[21] = KRS1 OE, promastigote, read-out: EC50 value
[22] = WT, promastigote, read-out: EC50 value
[23] = read-out: EC50 value, KRS1 S324L, promastigote

Structure (SMILES)	EC50 [1, 13]	EC50 [1, 14]	EC50 [1, 15]	EC50 [2]	inhibition at 10 min, 10 µM [3]	IC50 [4]	EC50 [5, 16]	EC50 ([5]; WT, BSF, read-out: EC50 value)	EC50 [5, 17]	EC50 [6, 18]	EC50 [6, 19]	EC50 [6, 20]	inhibition at 10 min, 10 µM [7]	EC50 [8, 21]	EC50 [8, 22]	EC50 [8, 23]	extent of inhibition of the human KRS1 enzyme [10]	IC50 [10]	inhibition at 30 min, 10 µM [12]	other results
Cc1nc(N)c2c(F)c(F)c(NC3CCCC3)c(F)c2n1 [DMU371, N7-Cyclopentyl-5,6,8-trifluoro-2-methylquinazoline-4,7-diamine]	888 ± 117 nM	589 ± 57 nM	205 ± 24 nM	5320 ± 2780 nM	8.6 ± 0.6%	7600 ± 1300 nM	4250 ± 170 nM	607 ± 9 nM	1870 ± 71 nM	624 ± 14 nM	326 ± 26 nM	63 ± 2.4 nM	74.8 ± 0.5%	1860 ± 63 nM	524 ± 9 nM	1740 ± 49 nM	partial inhibition	9800 nM	6.1 ± 1.3%	EC50 ([9]; TULAHUEN, L6, read-out: EC50 value): 233 ± 86 nM; EC50 [11]: 1090 ± 420 nM
Cc1nc(N)c2c(F)c(F)c(SC3CCCCC3)c(F)c2n1 [DMU759, 7-(Cyclohexylthio)-5,6,8-trifluoro-2-methylquinazolin-4-amine]	121 ± 19 nM	1540 ± 130 nM	16 ± 1 nM	284 ± 20 nM	7.9 ± 0.8%	12200 ± 1100 nM	1060 ± 33 nM	112 ± 0.8 nM	6480 ± 360 nM	134 ± 3 nM	565 ± 41 nM	14 ± 0.3 nM	61.5 ± 0.9%	1470 ± 56 nM	115 ± 0.1 nM	1320 ± 32 nM	partial inhibition	7170 nM	12.8 ± 2.8%	Fold-shift (relative to WT) ([1]; KRS1 OE): 8 fold; Fold-shift (relative to WT) ([1]; KRS1 S319L): 97 fold; Fold-shift (relative to WT) ([5]; KRS1 OE, BSF): 9 fold; Fold-shift (relative to WT) ([5]; KRS1 serine-to-leucine mutant (S323L; printed S319L in Table S1), BSF): 58 fold; Fold-shift (relative to WT) ([6]; KRS1 OE): 10 fold; Fold-shift (relative to WT) ([6]; KRS1 S319L): 41 fold; resistance conferred by mutation of a single amino acid in the KRS1 active site ([6]; in vitro, parasite not stated (discussion)): > 20 fold; Fold-shift (relative to WT) ([8]; KRS1 OE, promastigote): 13 fold; Fold-shift (relative to WT) ([8]; KRS1 S324L, promastigote): 12 fold; EC50 ([9]; WT Tulahuen strain, intracellular amastigote in L6 cells, read-out: EC50 value): 18 ± 7 nM; EC50 ([11]; WT, BSF): 313 ± 183 nM

Reference: article PMC7617978, “Anti-trypanosomal quinazolines targeting lysyl-tRNA synthetases show partial efficacy in a mouse model of acute Chagas disease” (Science translational medicine, 2025)
